Measurements from patent US8664257B2, “Oxygen-substituted 3-heteroaroylamino-propionic acid derivatives and their use as pharmaceuticals” (Sanofi, priority 2010, dated 2014).
pIC50: −log10 of the molar value.

molecular target: T1, Recombinant human cathepsin A (Homo sapiens, UniProt P10619); experiment: Cathepsin A inhibitory activity; format: biochemical; settings: number printed in place of a class symbol; unit from footnote (2); read-out: Activity (2): Cathepsin A inhibitory activity, IC50 printed as a numeric bound
T1 construct: Recombinant human cathepsin A (residues 29-480, with a C-terminal 10-His tag); 10-His (C); purchased R&D Systems 1049-SE
T1 sequence (P10619 29-312 limits assumed): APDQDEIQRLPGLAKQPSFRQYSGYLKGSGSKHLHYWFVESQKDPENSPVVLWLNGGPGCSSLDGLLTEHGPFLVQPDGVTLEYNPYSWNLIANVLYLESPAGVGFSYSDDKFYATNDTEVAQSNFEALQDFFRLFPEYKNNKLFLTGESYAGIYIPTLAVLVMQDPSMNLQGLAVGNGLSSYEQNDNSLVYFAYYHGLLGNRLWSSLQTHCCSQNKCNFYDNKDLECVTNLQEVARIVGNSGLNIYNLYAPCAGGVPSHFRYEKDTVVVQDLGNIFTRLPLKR
T1 sequence (P10619 327-480 limits assumed): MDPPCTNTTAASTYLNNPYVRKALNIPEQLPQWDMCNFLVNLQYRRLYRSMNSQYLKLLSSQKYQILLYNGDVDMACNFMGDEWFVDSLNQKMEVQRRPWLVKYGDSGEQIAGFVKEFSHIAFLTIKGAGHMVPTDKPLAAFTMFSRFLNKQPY
Description: a) Cathepsin A Inhibitory Activity
Recombinant human cathepsin A (residues 29-480, with a C-terminal 10-His tag; R&D Systems, #1049-SE) was proteolytically activated with recombinant human cathepsin L (R&D Systems, #952-CY). Briefly, cathepsin A was incubated at 10 μg/ml with cathepsin L at 1 μg/ml in activation buffer (25 mM 2-(morpholin-4-yl)-ethanesulfonic acid (MES), pH 6.0, containing 5 mM dithiothreitol (DTT)) for 15 min at 37° C. Cathepsin L activity was then stopped by the addition of the cysteine protease inhibitor E-64 (N-(trans-epoxysuccinyl)-L-leucine-4-guanidinobutylamide; Sigma-Aldrich, #E3132; dissolved in activation buffer/DMSO) to a final concentration of 10 μM.
The activated cathepsin A was diluted in assay buffer (25 mM MES, pH 5.5, containing 5 mM DTT) and mixed with the test compound (dissolved in assay buffer containing (v/v) 3% DMSO) or, in the control experiments, with the vehicle in a multiple assay plate. After incubation for 15 min at room temperature, as substrate then bradykinin carrying an N-terminal®Bodipy FL (4,4-difluoro-5,7-dimethyl-4-bora-3a,4a-diaza-s-indacene-3-propionyl) label (JPT Peptide Technologies GmbH; dissolved in assay buffer) was added to the mixture. The final concentration of cathepsin A was 833 ng/ml and the final concentration of labeled bradykinin 2 μM. After incubation for 15 min at room temperature the reaction was stopped by the addition of stop buffer (130 mM 2-(4-(2-hydroxy-ethyl)-piperazin-1-yl)-ethanesulfonic acid, pH 7.4, containing (v/v) 0.013% Triton X-100, 0.13% Coating Reagent 3 (Caliper Life Sciences), 6.5% DMSO and 20 μM ebelactone B (Sigma, # E0886)).
Uncleaved substrate and product were then separated by a microfluidic capillary electrophoresis on a LabChip® 3000 Drug Discovery System (12-Sipper-Chip; Caliper Life Sciences) and quantified by determination of the respective peak areas. Substrate turnover was calculated by dividing product peak area by the sum of substrate and product peak areas, and the enzyme activity and the inhibitory effect of the test compound thus quantified. From the percentage of inhibition of cathepsin A activity observed with the test compound at several concentrations, the inhibitory concentration IC50, i.e. the concentration which effects 50% inhibition of enzyme activity was, calculated.

Row | Structure (SMILES) | pIC50
1 | CC(C)[C@@](C)(O)COc1cc(C(=O)N[C@@H](CC(=O)O)c2ccccc2Cl)nn1-c1ccccc1F [Example 861, (S)-3-(2-Chloro-phenyl)-3-{[1-(2-fluoro-phenyl)-5-((R)-2-hydroxy-2,3-dimethyl-butoxy)-1H-pyrazole-3-carbonyl]-amino}-propionic acid] | < 4.52

same assay, conditions: pharmacological test "Cathepsin A inhibitory activity"; IC50 given as class A/B/C; read-out: Activity (2): Cathepsin A inhibitory activity, IC50 class

Row | pIC50 | Structure (SMILES)
2 | 6.00 to 7.00 | O=C(O)C[C@H](NC(=O)c1cc(O)n(-c2ccc(F)cc2F)n1)c1ccc(C(F)(F)F)cc1 [Example 185]
3 | 6.00 to 7.00 | O=C(O)CC(NC(=O)c1cc(O)n(-c2cccc(Cl)c2)n1)c1cccc(Cl)c1F (stereo not drawn) [Example 262]
4 | 6.00 to 7.00 | COc1ccc(Cl)cc1C(CC(=O)O)NC(=O)c1cc(O)n(-c2ccccc2Cl)n1 (stereo not drawn) [Example 209]
5 | 6.00 to 7.00 | Cc1cccc(C(CC(=O)O)NC(=O)c2cc(O)n(-c3cccc(Cl)c3)n2)c1C (stereo not drawn) [Example 261]

same assay, conditions: read-out: Activity (2): Cathepsin A inhibitory activity (IC50 class)

Row | Structure (SMILES) | pIC50
6 | CCC(O)(CC)COc1cc(C(=O)N[C@@H](CC(=O)O)c2ccc(Cl)cc2Cl)nn1-c1ccccc1F [Example 762, (S)-3-(2,4-Dichloro-phenyl)-3-{[5-(2-ethyl-2-hydroxy-butoxy)-1-(2-fluoro-phenyl)-1H-pyrazole-3-carbonyl]-amino}-propionic acid] | > 7.00
7 | Cc1ccc([C@H](CC(=O)O)NC(=O)c2cc(OC[C@](C)(O)C(C)(C)C)n(-c3ccccc3F)n2)cc1 [Example 780, (S)-3-{[1-(2-Fluoro-phenyl)-5-((R)-2-hydroxy-2,3,3-trimethyl-butoxy)-1H-pyrazole-3-carbonyl]-amino}-3-p-tolyl-propionic acid] | > 7.00
8 | Cc1ccc([C@H](CC(=O)O)NC(=O)c2cc(OC[C@@](C)(O)C(C)(C)C)n(-c3ccccc3F)n2)cc1 [Example 781, (S)-3-{[1-(2-Fluoro-phenyl)-5-((S)-2-hydroxy-2,3,3-trimethyl-butoxy)-1H-pyrazole-3-carbonyl]-amino}-3-p-tolyl-propionic acid] | > 7.00

More lines, now with the values ahead:

Row | pIC50 | Structure (SMILES)
9 | 6.00 to 7.00 | O=C(O)CC(NC(=O)c1cc(O)n(-c2ccccc2Cl)n1)c1ccc(-c2ccccc2Cl)cc1 (stereo not drawn) [Example 591]
10 | > 7.00 | COc1cc(C(=O)NC(CC(=O)O)c2ccc(-c3ccccn3)cc2)nn1-c1ccccc1F (stereo not drawn) [Example 598]
11 | 6.00 to 7.00 | Cc1ccccc1[C@H](CC(=O)O)NC(=O)c1cc(O)n(-c2cccc(S(N)(=O)=O)c2)n1 [Example 601]
12 | > 7.00 | Cc1ccccc1[C@H](CC(=O)O)NC(=O)c1cc(OCC2CCCCO2)n(-c2ccccc2F)n1 (stereo partly drawn) [Example 653]
13 | > 7.00 | Cc1ccccc1[C@H](CC(=O)O)NC(=O)c1cc(OCC(=O)N(C)C)n(-c2ccccc2F)n1 [Example 615]
14 | > 7.00 | Cc1ccccc1[C@H](CC(=O)O)NC(=O)c1cc(OC[C@H](O)C2CC2)n(-c2ccccc2F)n1 (single isomer, unassigned) [Example 760]
15 | 6.00 to 7.00 | COc1ccccc1[C@H](CC(=O)O)NC(=O)c1cc(OCC2CC2)n(-c2ccccc2F)n1 [Example 687]
16 | 6.00 to 7.00 | COc1cc(C(=O)N[C@@H](CC(=O)O)c2ccccc2C(F)(F)F)nn1-c1ccccc1F [Example 680, (S)-3-{[1-(2-Fluoro-phenyl)-5-methoxy-1H-pyrazole-3-carbonyl]-amino}-3-(2-trifluoromethyl-phenyl)-propionic acid]
17 | > 7.00 | Cc1ccccc1[C@H](CC(=O)O)NC(=O)c1cc(OC[C@@H]2CCC(=O)N2)n(-c2ccccc2F)n1 [Example 654]
18 | > 7.00 | Cc1ccccc1[C@H](CC(=O)O)NC(=O)c1cc(OCC2CC2)n(-c2c(F)cccc2F)n1 [Example 634]

same assay, conditions: read-out: Activity (2): Cathepsin A inhibitory activity, IC50 class

Row | Structure (SMILES) | pIC50
19 | O=C(O)CC(NC(=O)c1cc(O)n(-c2ccccc2)n1)c1ccc(OC(F)(F)F)cc1 (stereo not drawn) [Example 12] | 6.00 to 7.00
20 | O=C(O)C[C@H](NC(=O)c1cc(O)n(-c2cccc(F)c2)n1)c1ccccc1Br [Example 302] | 6.00 to 7.00
21 | Cc1cccc([C@H](CC(=O)O)NC(=O)c2cc(O)n(-c3ccc(Cl)cc3)n2)c1 [Example 284] | 6.00 to 7.00
22 | Cc1ccc(C)c(-n2nc(C(=O)NC(CC(=O)O)c3ccccc3Cl)cc2O)c1 (stereo not drawn) [Example 39] | 4.52 to 6.00
23 | COc1cccc([C@H](CC(=O)O)NC(=O)c2cc(O)n(-c3ccc(F)cc3)n2)c1 [Example 348] | 4.52 to 6.00
24 | N#Cc1cccc([C@H](CC(=O)O)NC(=O)c2cc(O)n(-c3ccc(Cl)cc3)n2)c1 [Example 271] | 4.52 to 6.00
25 | COc1cccc([C@H](CC(=O)O)NC(=O)c2cc(OCC(C)(O)C(C)C)n(-c3ccccc3F)n2)c1 (stereo partly drawn) [Example 802, (S)-3-{[1-(2-Fluoro-phenyl)-5-(2-hydroxy-2,3-dimethyl-butoxy)-1H-pyrazole-3-carbonyl]-amino}-3-(3-methoxy-phenyl)-propionic acid] | > 7.00
26 | Cc1ccc(C(CC(=O)O)NC(=O)c2cc(O)n(-c3ccc(Cl)cc3)n2)c(C)c1 (stereo not drawn) [Example 291] | 6.00 to 7.00
27 | Cc1ccccc1[C@H](CC(=O)O)NC(=O)c1cc(OC[C@@](C)(O)C(C)C)n(-c2ccccc2F)n1 [Example 870, (S)-3-{[1-(2-Fluoro-phenyl)-5-((S)-2-hydroxy-2,3-dimethyl-butoxy)-1H-pyrazole-3-carbonyl]-amino}-3-o-tolyl-propionic acid] | > 7.00
28 | O=C(O)C[C@H](NC(=O)c1cc(O)n(-c2ccc(Cl)cc2)n1)c1ccc(Cl)cc1Cl [Example 297] | 6.00 to 7.00

Now from value to molecule:

Row | pIC50 | Structure (SMILES)
29 | 6.00 to 7.00 | COc1ccc(C(CC(=O)O)NC(=O)c2cc(O)n(-c3ccc(F)cc3F)n2)c(OC)c1 (stereo not drawn) [Example 383]
30 | 6.00 to 7.00 | O=C(O)C[C@H](NC(=O)c1cc(O)n(-c2ccc(F)cc2)n1)c1cccc(C(F)(F)F)c1 [Example 355]
31 | 6.00 to 7.00 | O=C(O)C[C@H](NC(=O)c1cc(O)n(-c2ccc(F)cc2)n1)c1ccc(Cl)cc1 [Example 369]

same assay, conditions: recombinant human cathepsin A 833 ng/ml, Bodipy FL-labeled bradykinin 2 μM, pH 5.5; read-out: CATH-A IC50

Row | pIC50 | Structure (SMILES)
32 | 6.82 | O=C(O)CC(NC(=O)c1cc(O)n(-c2ccc(F)cc2)n1)c1ccc(-c2ccccn2)cc1 (stereo not drawn) [Example 527, 3-{[1-(4-Fluoro-phenyl)-5-hydroxy-1H-pyrazole-3-carbonyl]-amino}-3-(4-pyridin-2-yl-phenyl)-propionic acid]
33 | 6.77 | COc1cccc(F)c1C(CC(=O)O)NC(=O)c1cc(O)n(-c2ccccc2Cl)n1 (stereo not drawn) [Example 457, 3-{[1-(2-Chloro-phenyl)-5-hydroxy-1H-pyrazole-3-carbonyl]-amino}-3-(2-fluoro-6-methoxy-phenyl)-propionic acid]
34 | 6.62 | O=C(O)CC(NC(=O)c1cc(O)n(-c2ccc(Cl)cc2)n1)c1ccc(-c2ccccn2)cc1 (stereo not drawn) [Example 515, 3-{[1-(4-Chloro-phenyl)-5-hydroxy-1H-pyrazole-3-carbonyl]-amino}-3-(4-pyridin-2-yl-phenyl)-propionic acid]
35 | 6.84 | Cc1ccc(F)cc1C(CC(=O)O)NC(=O)c1cc(O)n(-c2ccccc2)n1 (stereo not drawn) [Example 497, 3-(5-Fluoro-2-methyl-phenyl)-3-[(5-hydroxy-1-phenyl-1H-pyrazole-3-carbonyl)-amino]-propionic acid]
36 | 6.85 | COc1ccc(F)cc1C(CC(=O)O)NC(=O)c1cc(O)n(-c2ccccc2)n1 (stereo not drawn) [Example 498, 3-(5-Fluoro-2-methoxy-phenyl)-3-[(5-hydroxy-1-phenyl-1H-pyrazole-3-carbonyl)-amino]-propionic acid]

Row | Structure (SMILES) | pIC50
37 | Cc1ccccc1[C@H](CC(=O)O)NC(=O)c1cc(OC[C@@](C)(O)C(C)C)n(-c2ccccc2F)n1 [Example 870, (S)-3-{[1-(2-Fluoro-phenyl)-5-((S)-2-hydroxy-2,3-dimethyl-butoxy)-1H-pyrazole-3-carbonyl]-amino}-3-o-tolyl-propionic acid] | 7.12

same assay, conditions: recombinant human cathepsin A; read-out: Activity (2): Cathepsin A inhibitory activity, IC50 class

Row | pIC50 | Structure (SMILES)
38 | 6.00 to 7.00 | O=C(O)C[C@H](NC(=O)c1cc(O)n(-c2cccc(F)c2)n1)c1ccccc1Cl [Example 522]
39 | 6.00 to 7.00 | O=C(O)CC(NC(=O)c1cc(O)n(-c2ccc(F)cc2)n1)c1ccc(-c2ccccn2)cc1 (stereo not drawn) [Example 527, 3-{[1-(4-Fluoro-phenyl)-5-hydroxy-1H-pyrazole-3-carbonyl]-amino}-3-(4-pyridin-2-yl-phenyl)-propionic acid]
40 | 4.52 to 6.00 | O=C(O)CC(NC(=O)c1cc(O)n(-c2ccc(Cl)cc2)n1)c1ccc(-c2ccc(F)cc2)cc1 (stereo not drawn) [Example 425]
41 | 6.00 to 7.00 | COc1cccc(F)c1C(CC(=O)O)NC(=O)c1cc(O)n(-c2ccccc2Cl)n1 (stereo not drawn) [Example 457, 3-{[1-(2-Chloro-phenyl)-5-hydroxy-1H-pyrazole-3-carbonyl]-amino}-3-(2-fluoro-6-methoxy-phenyl)-propionic acid]
42 | 6.00 to 7.00 | O=C(O)CC(NC(=O)c1cc(O)n(-c2ccc(Cl)cc2)n1)c1ccc(-c2ccccn2)cc1 (stereo not drawn) [Example 515, 3-{[1-(4-Chloro-phenyl)-5-hydroxy-1H-pyrazole-3-carbonyl]-amino}-3-(4-pyridin-2-yl-phenyl)-propionic acid]
43 | 6.00 to 7.00 | Cc1ccc(F)cc1C(CC(=O)O)NC(=O)c1cc(O)n(-c2ccccc2)n1 (stereo not drawn) [Example 497, 3-(5-Fluoro-2-methyl-phenyl)-3-[(5-hydroxy-1-phenyl-1H-pyrazole-3-carbonyl)-amino]-propionic acid]
44 | 6.00 to 7.00 | COc1ccc(F)cc1C(CC(=O)O)NC(=O)c1cc(O)n(-c2ccccc2)n1 (stereo not drawn) [Example 498, 3-(5-Fluoro-2-methoxy-phenyl)-3-[(5-hydroxy-1-phenyl-1H-pyrazole-3-carbonyl)-amino]-propionic acid]
45 | 6.00 to 7.00 | O=C(O)CC(NC(=O)c1cc(O)n(-c2ccnc(Cl)c2)n1)c1ccc(-c2ccccc2)cc1 (stereo not drawn) [Example 439]
